In ChEMBL document CHEMBL1156443, “Guanidinylated neomycin delivers large, bioactive cargo into cells through a heparan sulfate-dependent pathway” (J Biol Chem, 2007) one finds Activity and IC50 data, which are given here for two molecules.

Structures are written as SMILES. Calls of active or inactive are those of the source. No cut-off for these calls is given here.

For data set [1], the system named is CHO. In words: Cytotoxicity against CHO cells upto 100 nM after 4 days by Cell-Titer assay. It counts as cell-based, Cricetulus griseus. The following applies: chinese hamster, 96 h.
For data set [2], the system named is CHO. The experiment in a line: Cytotoxicity against CHO pgsA745 mutant cells upto 100 nM after 4 days by Cell-Titer assay. It counts as cell-based, Cricetulus griseus. The following applies: chinese hamster, 96 h.
In data set [3] the target is Fibroblast growth factor 2 (Homo sapiens, UniProt P09038). The experiment in a line: Binding affinity to biotinylated FGF2 in CHO cells by flow cytometry. It is filed as cell-based. A general note: In flow cytometry, cells or beads pass a laser one at a time.
Data set [4] relates to CHO. In words: Inhibition of arg9 binding to CHO pgsA745 mutant cells after 1 hr by flow cytometry. It counts as cell-based.
Data set [5] relates to CHO. The experiment in a line: Inhibition of arg9 binding to CHO cells after 1 hr by flow cytometry. It is filed as cell-based.

Sequence of Fibroblast growth factor 2 (P09038 143-288 limits assumed): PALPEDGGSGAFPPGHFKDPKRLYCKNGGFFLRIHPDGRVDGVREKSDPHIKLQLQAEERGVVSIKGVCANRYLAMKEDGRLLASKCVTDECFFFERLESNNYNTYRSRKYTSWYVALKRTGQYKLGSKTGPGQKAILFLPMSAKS

Take `N=C(N)NC[C@@H]1O[C@H](O[C@H]2[C@@H](O)[C@H](O[C@@H]3[C@@H](O)[C@H](NC(=N)N)C[C@H](NC(=N)N)[C@H]3O[C@H]3O[C@H](CNC(=N)N)[C@@H](O)[C@H](O)[C@H]3NC(=N)N)O[C@@H]2CSCCNC(=O)CCCCCNC(=O)CCCC[C@@H]2SCC3NC(=O)NC32)[C@H](NC(=N)N)[C@@H](O)[C@@H]1O` (stereo not given in full): the Activity entry in the data set on CHO [1] and in the data set with CHO [2] was “Non-toxic” in each case.
By IC50 is commonly meant the concentration needed to halve the response being measured. As for `N=C(N)NC[C@@H]1O[C@H](O[C@H]2[C@@H](O)[C@H](O[C@@H]3[C@@H](O)[C@H](NC(=N)N)C[C@H](NC(=N)N)[C@H]3O[C@H]3O[C@H](CNC(=N)N)[C@@H](O)[C@H](O)[C@H]3NC(=N)N)O[C@@H]2CO)[C@H](NC(=N)N)[C@@H](O)[C@@H]1O` [GUANIDINONEOMYCIN], the half-maximal inhibitory concentration (IC50) in data set [3] was determined as 20 µM. Also, in the data set on CHO [4], the outcome was inactive. Also, the result with CHO [5] was Active.
